Laboratory results taken from ChEMBL document CHEMBL1138520, “Molecular and conformational determinants of pituitary adenylate cyclase-activating polypeptide (PACAP) for activation of the PAC1 receptor” (J Med Chem, 2009).
Active and inactive are the calls of the source. The rule behind the calls is not given here. Where a SMILES comes first, the peptide text is derived from it. [ ]: non-standard residue; d: D form. ξ: configuration not given here. ξDisc = O=C(O)C1NCc2ccccc21

How the values were obtained:
[1] = target: T1, Pituitary adenylate cyclase-activating polypeptide type I receptor (Homo sapiens, UniProt P41586); test: Displacement of [125I]Ac-PACAP27 from human recombinant PAC1 receptor expressed in CHO cells by gamma- counter; assay type: cell-based
Target sequence in this assay (P41586 whole entry): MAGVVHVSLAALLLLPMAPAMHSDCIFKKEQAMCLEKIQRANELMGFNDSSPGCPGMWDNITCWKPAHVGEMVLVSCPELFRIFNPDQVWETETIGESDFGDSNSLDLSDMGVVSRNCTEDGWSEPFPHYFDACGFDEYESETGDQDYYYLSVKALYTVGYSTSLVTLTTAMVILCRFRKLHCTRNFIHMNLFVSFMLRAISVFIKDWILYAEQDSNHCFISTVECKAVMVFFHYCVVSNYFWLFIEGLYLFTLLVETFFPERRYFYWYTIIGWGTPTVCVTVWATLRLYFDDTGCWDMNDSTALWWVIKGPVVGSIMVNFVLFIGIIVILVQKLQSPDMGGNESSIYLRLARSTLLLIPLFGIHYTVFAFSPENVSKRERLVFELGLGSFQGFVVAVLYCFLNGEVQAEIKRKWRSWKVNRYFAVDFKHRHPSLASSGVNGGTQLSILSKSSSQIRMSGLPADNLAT

[2] = target: T1, Pituitary adenylate cyclase-activating polypeptide type I receptor; test: Agonist activity at human recombinant PAC1 receptor expressed in CHO cells assessed as PACAP38-induced calcium mobilization at 1 uM by FLIPR assay; assay type: functional, cell-based
Target sequence in this assay (P41586 whole entry): as above

[3] = target: T1, Pituitary adenylate cyclase-activating polypeptide type I receptor; test: Agonist activity at human recombinant PAC1 receptor expressed in CHO cells assessed as PACAP38-induced calcium mobilization at 1 uM by FLIPR assay relative to PACAP38; assay type: functional, cell-based
Target sequence in this assay (P41586 21-468 limits assumed): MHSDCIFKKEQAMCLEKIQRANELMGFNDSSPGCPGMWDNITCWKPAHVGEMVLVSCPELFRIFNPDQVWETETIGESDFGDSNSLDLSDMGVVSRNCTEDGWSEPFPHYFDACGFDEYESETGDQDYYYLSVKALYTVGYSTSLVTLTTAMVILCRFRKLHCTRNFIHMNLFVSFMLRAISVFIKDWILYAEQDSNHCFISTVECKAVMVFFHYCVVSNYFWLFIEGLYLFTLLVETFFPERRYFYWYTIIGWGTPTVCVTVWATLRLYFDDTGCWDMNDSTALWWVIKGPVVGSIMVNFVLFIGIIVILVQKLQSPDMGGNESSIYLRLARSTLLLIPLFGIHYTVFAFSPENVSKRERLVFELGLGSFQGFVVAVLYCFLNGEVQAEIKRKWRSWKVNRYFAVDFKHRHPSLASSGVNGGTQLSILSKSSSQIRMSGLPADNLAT

| SMILES | IC50 [1] | EC50 [2] | Emax [3] |
| --- | --- | --- | --- |
| CC[C@H](C)[C@H](NC(=O)CNC(=O)[C@H](CC(=O)O)NC(=O)[C@H](CO)NC(=O)[C@@H](N)Cc1cnc[nH]1)C(=O)N(C)[C@@H](Cc1ccccc1)C(=O)N[C@H](C(=O)N[C@@H](CC(=O)O)C(=O)N[C@@H](CO)C(=O)N[C@@H](Cc1ccc(O)cc1)C(=O)N[C@@H](CO)C(=O)N[C@@H](CCCNC(=N)N)C(=O)N[C@@H](Cc1ccc(O)cc1)C(=O)N[C@@H](CCCNC(=N)N)C(=O)N[C@@H](CCCCN)C(=O)N[C@@H](CCC(N)=O)C(=O)N[C@@H](CCSC)C(=O)N[C@@H](C)C(=O)N[C@H](C(=O)N[C@@H](CCCCN)C(=O)N[C@@H](CCCCN)C(=O)N[C@@H](Cc1ccc(O)cc1)C(=O)N[C@@H](CC(C)C)C(=O)N[C@@H](C)C(=O)N[C@@H](C)C(=O)N[C@H](C(=O)N[C@@H](CC(C)C)C(N)=O)C(C)C)C(C)C)[C@@H](C)O | 3150 nM | Not Active | inactive |
| CC[C@H](C)[C@H](NC(=O)CNC(=O)[C@H](CC(=O)O)NC(=O)[C@H](CO)NC(=O)[C@@H](N)Cc1cnc[nH]1)C(=O)N1Cc2ccccc2C1C(=O)N[C@H](C(=O)N[C@@H](CC(=O)O)C(=O)N[C@@H](CO)C(=O)N[C@@H](Cc1ccc(O)cc1)C(=O)N[C@@H](CO)C(=O)N[C@@H](CCCNC(=N)N)C(=O)N[C@@H](Cc1ccc(O)cc1)C(=O)N[C@@H](CCCNC(=N)N)C(=O)N[C@@H](CCCCN)C(=O)N[C@@H](CCC(N)=O)C(=O)N[C@@H](CCSC)C(=O)N[C@@H](C)C(=O)N[C@H](C(=O)N[C@@H](CCCCN)C(=O)N[C@@H](CCCCN)C(=O)N[C@@H](Cc1ccc(O)cc1)C(=O)N[C@@H](CC(C)C)C(=O)N[C@@H](C)C(=O)N[C@@H](C)C(=O)N[C@H](C(=O)N[C@@H](CC(C)C)C(N)=O)C(C)C)C(C)C)[C@@H](C)O (stereo partly drawn) | 3590 nM | Not Active | inactive |
| CC[C@H](C)[C@H](NC(=O)CNC(=O)[C@H](CC(=O)O)NC(=O)[C@H](CO)NC(=O)[C@@H](N)Cc1cnc[nH]1)C(=O)N(C)[C@@H](Cc1ccccc1)C(=O)N[C@H](C(=O)N[C@@H](CC(=O)O)C(=O)N[C@@H](CO)C(=O)N[C@@H](Cc1ccc(O)cc1)C(=O)N[C@@H](CO)C(=O)N[C@@H](CCCNC(=N)N)C(=O)N[C@@H](Cc1ccc(O)cc1)C(=O)N[C@@H](CCCNC(=N)N)C(=O)N[C@@H](CCCCN)C(=O)N[C@@H](CCC(N)=O)C(=O)N[C@@H](CCSC)C(=O)N[C@@H](C)C(=O)N[C@H](C(=O)N[C@@H](CCCCN)C(=O)N[C@@H](CCCCN)C(=O)N[C@@H](Cc1ccc(O)cc1)C(=O)N[C@@H](CC(C)C)C(=O)N[C@@H](C)C(=O)N[C@@H](C)C(=O)N[C@H](C(=O)N[C@@H](CC(C)C)C(=O)NCC(=O)N[C@@H](CCCCN)C(=O)N[C@@H](CCCNC(=N)N)C(=O)N[C@@H](Cc1ccc(O)cc1)C(=O)N[C@@H](CCCCN)C(=O)N[C@@H](CCC(N)=O)C(=O)N[C@@H](CCCNC(=N)N)C(=O)N[C@H](C(=O)N[C@@H](CCCCN)C(=O)N[C@@H](CC(N)=O)C(=O)N[C@@H](CCCCN)C(N)=O)C(C)C)C(C)C)C(C)C)[C@@H](C)O | 1280 nM | Not Active | inactive |
| CC[C@H](C)[C@H](NC(=O)CNC(=O)[C@H](CC(=O)O)NC(=O)[C@H](CO)NC(=O)[C@@H](N)Cc1cnc[nH]1)C(=O)N1CCc2ccccc2C1C(=O)N[C@H](C(=O)N[C@@H](CC(=O)O)C(=O)N[C@@H](CO)C(=O)N[C@@H](Cc1ccc(O)cc1)C(=O)N[C@@H](CO)C(=O)N[C@@H](CCCNC(=N)N)C(=O)N[C@@H](Cc1ccc(O)cc1)C(=O)N[C@@H](CCCNC(=N)N)C(=O)N[C@@H](CCCCN)C(=O)N[C@@H](CCC(N)=O)C(=O)N[C@@H](CCSC)C(=O)N[C@@H](C)C(=O)N[C@H](C(=O)N[C@@H](CCCCN)C(=O)N[C@@H](CCCCN)C(=O)N[C@@H](Cc1ccc(O)cc1)C(=O)N[C@@H](CC(C)C)C(=O)N[C@@H](C)C(=O)N[C@@H](C)C(=O)N[C@H](C(=O)N[C@@H](CC(C)C)C(N)=O)C(C)C)C(C)C)[C@@H](C)O (stereo partly drawn) | 2590 nM | Not Active | inactive |
| CC[C@H](C)[C@H](NC(=O)CNC(=O)[C@H](CC(=O)O)NC(=O)[C@H]1CCCN1C(=O)[C@@H](N)Cc1cnc[nH]1)C(=O)N[C@@H](Cc1ccccc1)C(=O)N[C@H](C(=O)N[C@@H](CC(=O)O)C(=O)N[C@@H](CO)C(=O)N[C@@H](Cc1ccc(O)cc1)C(=O)N[C@@H](CO)C(=O)N[C@@H](CCCNC(=N)N)C(=O)N[C@@H](Cc1ccc(O)cc1)C(=O)N[C@@H](CCCNC(=N)N)C(=O)N[C@@H](CCCCN)C(=O)N[C@@H](CCC(N)=O)C(=O)N[C@@H](CCSC)C(=O)N[C@@H](C)C(=O)N[C@H](C(=O)N[C@@H](CCCCN)C(=O)N[C@@H](CCCCN)C(=O)N[C@@H](Cc1ccc(O)cc1)C(=O)N[C@@H](CC(C)C)C(=O)N[C@@H](C)C(=O)N[C@@H](C)C(=O)N[C@H](C(=O)N[C@@H](CC(C)C)C(N)=O)C(C)C)C(C)C)[C@@H](C)O | 268 nM | Not Active | inactive |
| CC[C@H](C)[C@H](NC(=O)CNC(=O)[C@H](CC(=O)O)NC(=O)[C@H](CO)NC(=O)[C@@H](N)Cc1cnc[nH]1)C(=O)N1Cc2ccccc2C1C(=O)N[C@H](C(=O)N[C@@H](CC(=O)O)C(=O)N[C@@H](CO)C(=O)N[C@@H](Cc1ccc(O)cc1)C(=O)N[C@@H](CO)C(=O)N[C@@H](CCCNC(=N)N)C(=O)N[C@@H](Cc1ccc(O)cc1)C(=O)N[C@@H](CCCNC(=N)N)C(=O)N[C@@H](CCCCN)C(=O)N[C@@H](CCC(N)=O)C(=O)N[C@@H](CCSC)C(=O)N[C@@H](C)C(=O)N[C@H](C(=O)N[C@@H](CCCCN)C(=O)N[C@@H](CCCCN)C(=O)N[C@@H](Cc1ccc(O)cc1)C(=O)N[C@@H](CC(C)C)C(=O)N[C@@H](C)C(=O)N[C@@H](C)C(=O)N[C@H](C(=O)N[C@@H](CC(C)C)C(=O)NCC(=O)N[C@@H](CCCCN)C(=O)N[C@@H](CCCNC(=N)N)C(=O)N[C@@H](Cc1ccc(O)cc1)C(=O)N[C@@H](CCCCN)C(=O)N[C@@H](CCC(N)=O)C(=O)N[C@@H](CCCNC(=N)N)C(=O)N[C@H](C(=O)N[C@@H](CCCCN)C(=O)N[C@@H](CC(N)=O)C(=O)N[C@@H](CCCCN)C(N)=O)C(C)C)C(C)C)C(C)C)[C@@H](C)O (stereo partly drawn) (H-HSDGI[ξDisc]TDSYSRYRKQMAVKKYLAAVLGKRYKQRVKNK-NH2) | 1750 nM | Not Active | inactive |
